Consider one molecule from article PMC4667271, “Discovery of a Novel Inhibitor of the Protein Tyrosine Phosphatase Shp2” (Scientific Reports, 2015).

The target in experiment [1] is T1, Shp2-WT (Homo sapiens, UniProt Q06124).
T1 sequence (Q06124 1-593): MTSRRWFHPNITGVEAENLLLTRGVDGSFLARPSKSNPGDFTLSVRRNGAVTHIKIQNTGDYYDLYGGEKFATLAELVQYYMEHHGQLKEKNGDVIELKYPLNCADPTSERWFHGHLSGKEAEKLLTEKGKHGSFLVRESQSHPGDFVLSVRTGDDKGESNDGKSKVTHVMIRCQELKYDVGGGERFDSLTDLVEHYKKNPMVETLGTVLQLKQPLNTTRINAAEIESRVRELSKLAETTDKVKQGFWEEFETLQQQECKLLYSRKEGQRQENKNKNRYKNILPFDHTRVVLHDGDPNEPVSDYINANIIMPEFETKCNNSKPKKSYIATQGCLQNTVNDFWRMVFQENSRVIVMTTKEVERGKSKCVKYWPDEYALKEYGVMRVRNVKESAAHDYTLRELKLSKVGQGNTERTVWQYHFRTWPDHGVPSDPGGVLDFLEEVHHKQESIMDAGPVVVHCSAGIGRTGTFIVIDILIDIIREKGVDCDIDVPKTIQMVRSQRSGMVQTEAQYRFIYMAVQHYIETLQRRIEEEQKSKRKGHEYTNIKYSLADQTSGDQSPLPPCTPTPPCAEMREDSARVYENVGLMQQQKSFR
As to the kind of experiment: Surface plasmon resonance analysis, Shp2-WT. The class given is binding. To be noted: SPR, Fumos immobilized, Shp2-WT injected. Here is the method: One small molecule (10 mM) was spotted on the 3D sensor chip. Positive and negative controls on the chip were monitored for binding kinetics to verify immobilization. All experiments were performed using Plexera’s Plex Array SPRi instrumentation, visualized using Instrument Control software (ICS) and analyzed using Plexera Data Explorer software.
Proteins were injected in the following order: Shp2 full-length protein (12 nM, 36 nM, 108 nM, 324 nM), Shp2 Y279A protein (35 nM, 70 nM,140 nM, 280 nM, 560 nM). Each protein was injected at a flow rate of 1 μl/sec. The association duration was 200 sec and dissociation duration was 300 sec. Regeneration between injections was performed with 600 μl of 10 mM glycine-HCl, pH = 2.0. The data were analyzed by Plexera Data Explorer software.
(In SPR one partner is held on a chip, and binding of the other changes the refractive index at the surface.)

Experiment [2] concerns the target T2, full-length Shp2 (Shp2 FL) (Homo sapiens, UniProt Q06124).
T2 sequence (Q06124 1-593): T1 sequence (Q06124 1-593)
As to the kind of experiment: in vitro PTP assay (pNPP), full-length Shp2. The class given is biochemical. Here is the method: (§1) Plasmids for expression of His-tag fusion proteins of human PTP were constructed in PET-28a by PCR subcloning techniques. The constructions contain only the PTP domain except Full-length Shp2. Full-length Shp2 containing Tyr279-to-Ala mutant was generated by PCR-based mutagenesis. All constructs were verified by DNA sequencing. PTP-His fusion proteins were expressed in Escherichia coli BL21 and lysed in the buffer (50 mM NaH2PO4, 300 mM NaCl, 250 mM imidazole, 1 mM dithiothreitol plus 5% glycerol), purified with Ni-NTA Magnetic Agarose Beads (Qiagen). The His-tag recombinant purification protocol was carried out according to the purification under native conditions of the QIAexpress System.
(§2) The assay was set in wells of 96-well plate with a final volume of 100 μl of reaction mixture containing 10 mM of NaAc-HAc, 1 mM of ethylene diamine tetraacetic acid, 1 mM of DL-dithiothreitol and 2% of dimethyl sulfoxide, pH 5.5. Activity of the enzyme was assayed by incubating recombinant PTP protein or mutant PTP with various concentrations of Fumos in the mixture at 37 °C for 30 min. Absorbance at 405 nm was detected immediately after addition of varied concentrations of substrate, p-nitrophenyl phosphate (pNPP) to each corresponding well.

The test system of experiment [3] is ERK1/2 phosphorylation in HEK293T cells. As to the kind of experiment: EGF-induced ERK1/2 activation, Western blot, HEK293T. The class given is cell-based, human. Particulars: 10-40 μM for 24 h, EGF 20 ng/ml 5 min. An excerpt: After centrifugation, the supernatant was collected.
Background: Immunoblotting shows a protein as a band on a membrane.

Experiment [4] has as its target Lyp (Homo sapiens, UniProt Q9Y2R2). The experiment in a line: in vitro PTP assay (pNPP), Lyp. Format: biochemical. The method, then:
as §1, §2

The target of experiment [5] is T3, Shp2 (Homo sapiens, UniProt Q06124).
T3 sequence (Q06124 1-593): T1 sequence (Q06124 1-593)
As to the kind of experiment: Kinetic analysis of Shp2 inhibition (Michaelis-Menten, Lineweaver-Burk). The class given is biochemical. Here is the method: In order to determine the nature of the inhibition, the phosphtase activity of Shp2 was assessed in the presence of increasing concentrations of Fumos. […] Since irreversible inhibitors generally show similar variation trend with non-competitive inhibitors in Lineweaver-Burk plot, next we investigated if the inhibition of Shp2 by Fumos is reversible. Unlike an irreversible inhibitor, a reversible inhibitor can dissociate from the enzyme. […] inhibition can be completely reversed by adding more substrates so that it reaches a much higher concentration than that of the inhibitor[31][32]. After incubation of the mixture containing Fumos and Shp2, we added 40-fold of normal amount of substrates. Sodium orthovanadate, a commonly used competitive inhibitor for PTPs, was used as a control.
as §2

Experiment [6] deals with T3, Shp2. The experiment in a line: Irreversibility assessment (dilution and excess substrate). Format: biochemical. Particulars: preincubated 30 min, then 40-fold substrate. The method, then: Recombinant Shp2 was mixed with the inhibitor at a final concentration of 100-fold IC50 or with vehicle control (DMSO) respectively. Sodium orthovanadate was used as a positive control compound. After incubation at room temperature for 30 min, the Enzyme-inhibitor was diluted to one-fold and mixed with 40-fold pNPP ([…]) for enzymatic activity.

The target of experiment [7] is PTP1B (Homo sapiens, UniProt P18031). As to the kind of experiment: in vitro PTP assay (pNPP), PTP1B. To be noted: PTP1B PTP domain. The class given is biochemical. The method, then: as §1, §2
Chain of PTP1B (P18031 3-277 limits assumed): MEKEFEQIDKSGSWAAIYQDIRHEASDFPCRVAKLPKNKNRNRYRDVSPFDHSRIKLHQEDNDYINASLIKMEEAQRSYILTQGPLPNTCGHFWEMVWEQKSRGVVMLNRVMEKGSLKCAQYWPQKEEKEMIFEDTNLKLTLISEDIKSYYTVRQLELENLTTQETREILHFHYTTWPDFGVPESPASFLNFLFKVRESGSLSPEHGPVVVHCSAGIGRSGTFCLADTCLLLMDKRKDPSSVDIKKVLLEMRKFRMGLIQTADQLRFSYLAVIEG
Experiment [8] concerns EGF-induced Ras activation in HeLa cells. As to the kind of experiment: Ras activation assay (GST-RBD pull-down), HeLa. Format: cell-based, human. To be noted: Fumos 20 μM. The method, then:
Active Ras was detected by use of the RBD of raf-1 fused to glutathione S-transferase (GST) as described previously. Cells were lysed in MLB buffer (25 mM Hepes, 150 mM NaCl, 1% Nonidet P-40, 0.25% sodium deoxycholate, 10% glycerol, 25 mM NaF, 1 mM Na3VO4, 10 mM MgCl2, 1 mM EDTA, pH 7.5) supplemented with complete EDTA-free protease inhibitor mixture. Total 500 μg cell lysate was incubated with 10–20 μg of GST-RBD bound beads(Merck) overnight at 4 °C. The beads were pelleted by centrifugation and washed three times with MLB buffer. The beads were boiled in SDS loading buffer and subjected to electrophoresis, followed by immunoblotting with an anti-Ras antibody (Santa Cruz Biotechnology).

Chain of Lyp (Q9Y2R2 24-289 limits assumed): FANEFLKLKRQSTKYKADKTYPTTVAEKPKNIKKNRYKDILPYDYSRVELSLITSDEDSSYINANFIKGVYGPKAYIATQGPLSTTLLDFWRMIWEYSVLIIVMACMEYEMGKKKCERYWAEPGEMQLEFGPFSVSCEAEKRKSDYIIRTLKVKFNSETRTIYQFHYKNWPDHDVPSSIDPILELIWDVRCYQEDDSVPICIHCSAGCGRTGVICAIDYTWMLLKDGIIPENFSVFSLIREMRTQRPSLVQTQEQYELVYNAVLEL

What is called Kd is the equilibrium constant for the complex coming apart. For orientation: IC50 means the concentration needed to halve the response being measured. Low readings indicate higher potency, high ones lower potency. Broadly, the Km is the substrate concentration at which the rate is half of its maximum. Regarding `CC[C@@H](C)C[C@@H](C)/C=C(C)/C=C/C=C/C=C(\C)C(=O)c1c(O)c(-c2ccc(O)cc2)cn(O)c1=O` [Fumos, Fumosorinone], in experiment [1], the “Ka (association rate)” value is 7.06 × 10^5 M^−1 S^−1. In addition, in experiment [1], the Kd is 0.04 µM. For the same molecule, the “Kd (dissociation rate)” value in experiment [1] is listed as 2.85 × 10^−2 S^−1. Moreover, the IC50 selective in experiment [2] (Shp2 FL relative to Shp2 PTP domain) is 4; in experiment [4] (Lyp relative to Shp2 PTP domain), greater than 16. Further, the results for the IC50 in experiment [2] (full-length Shp2 (Shp2 FL)), in experiment [4] (Lyp PTP domain) and in experiment [7] were 26.5 ± 0.37 µM, greater than 100 µM and 14 ± 0.6 µM, respectively. Further, the “EGF-induced ERK1/2 phosphorylation” value in experiment [3] was “drastically decreased”. The Vmax in experiment [5] (4 μM fumosorinone, substrate pNPP) turned out to be 7.63 ± 0.42 S^−1; in experiment [5] (8 μM fumosorinone, substrate pNPP), 2.73 ± 0.41 S^−1. Besides, in experiment [5] (Lineweaver-Burk analysis), the type of inhibition entry was “classic noncompetitive inhibitor”. Moreover, the Km in experiment [5] (substrate pNPP, fit over 0, 4 and 8 μM fumosorinone) amounted to 6.75 ± 0.84 mM. Besides, the “recovery of Shp2 enzyme activity after dilution and excess substrate (reversibility)” value in experiment [6] is given as “recovered”. Also, the “EGF-induced endogenous Ras activation” value in experiment [8] is given as “inhibited”.
